The source of these data is patent US11040035B2, “3-oxo-2,6-diphenyl-2,3-dihydropyridazine-4-carboxamides” (BAYER PHARMA AKTIENGESELLSCHAFT, priority 2016, dated 2021).

In assay [1] the target is T1, AHR (Homo sapiens, UniProt P35869).
T1 sequence (P35869 11-848): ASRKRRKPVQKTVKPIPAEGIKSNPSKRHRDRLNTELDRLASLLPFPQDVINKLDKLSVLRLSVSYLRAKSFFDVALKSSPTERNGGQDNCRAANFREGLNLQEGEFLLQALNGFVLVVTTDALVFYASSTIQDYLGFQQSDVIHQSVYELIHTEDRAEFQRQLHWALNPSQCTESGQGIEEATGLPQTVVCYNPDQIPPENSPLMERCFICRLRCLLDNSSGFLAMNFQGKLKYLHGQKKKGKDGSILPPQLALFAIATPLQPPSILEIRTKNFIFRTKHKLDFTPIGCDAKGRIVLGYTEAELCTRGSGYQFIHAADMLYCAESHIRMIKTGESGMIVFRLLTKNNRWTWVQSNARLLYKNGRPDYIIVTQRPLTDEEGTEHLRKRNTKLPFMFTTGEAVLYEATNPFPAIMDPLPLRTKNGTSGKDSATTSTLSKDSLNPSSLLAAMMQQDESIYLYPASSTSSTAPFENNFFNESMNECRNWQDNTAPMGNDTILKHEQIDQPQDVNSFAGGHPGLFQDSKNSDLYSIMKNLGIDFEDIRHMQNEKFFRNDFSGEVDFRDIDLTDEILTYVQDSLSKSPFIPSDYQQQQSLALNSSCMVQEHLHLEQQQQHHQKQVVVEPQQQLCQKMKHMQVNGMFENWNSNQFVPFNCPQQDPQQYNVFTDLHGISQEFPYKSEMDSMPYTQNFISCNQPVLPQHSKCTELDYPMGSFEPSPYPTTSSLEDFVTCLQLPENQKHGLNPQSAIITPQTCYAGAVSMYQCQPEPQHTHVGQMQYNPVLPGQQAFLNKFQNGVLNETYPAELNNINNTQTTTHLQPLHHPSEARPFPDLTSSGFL
Put plainly: In vitro assay 1: antagonism in human cell line (transactivation assay, kynurenic acid prestimulated). Particulars: Assay 1: AHR-luc Hum Antagonism IC50 [M], 150 μM kynurenic acid, 20 hours, firefly luciferase.

The target of assay [2] is T1, AHR. Put plainly: In vitro assay 2: agonism in human cell line (transactivation assay). Particulars: Assay 2: AHR-luc Hum Agonism IC50 [M], no kynurenic acid, 20 hours, firefly luciferase.
Experimental: Transactivation Assay in Human Cell Line (In Vitro Assays 1 and 2)
Transactivation assays were carried out in U87 glioblastoma cells (ATCC) endogenously expressing AHR. In addition the cells were stably transfected with an AHR inducible firefly luciferase reporter gene construct that carried AHR-binding sites (DRE) in its promoter and a renilla reporter gene construct with constitutively active promoter.
In Vitro Assay 2: Agonism in Human Cell Line
Cells in medium (tryptophan free RPMI, 1% FCS, 2 mM Glutamine) were grown for 20 hours in absence (negative control) or presence of increasing concentrations of test compounds (typical dilutions: 72 pmol/L, 0.25 nmol/L, 0.89 nmol/L; 3.1 nmol/L, 11 nmol/L, 38 nmol/L, 130 nmol/L, 470 nmol/L, 1.6 μmol/L, 5.7 μmol/L and 20 μmol/L in duplicates). As positive activation control cells were incubated with 300 μM kynurenic acid. Normalization was done by positive and negative controls.
Firefly luciferase activity was determined by the SteadyGlo Luciferase Assay System (Promega, #2520).

For orientation: IC50 means the concentration needed to halve the response being measured.

For the compound `O=C(NC(CO)CO)c1cc(-c2ccc(Cl)cc2)nn(-c2cccc(F)c2)c1=O` [Example 228, 6-(4-Chlorophenyl)-N-(1,3-dihydroxypropan-2-yl)-2-(3-fluorophenyl)-3-oxo-2,3-dihydropyridazine-4-carboxamide], the IC50 was 3.35e-07 M in assay [1] and more than 2e-05 M in assay [2].
On to `CN1CCC(O)(CNC(=O)c2cc(-c3ccc(Cl)cc3)nn(-c3cccc(F)c3)c2=O)CC1` [Example 234, 6-(4-Chlorophenyl)-2-(3-fluorophenyl)-N-[(4-hydroxy-1-methylpiperidin-4-yl)methyl]-3-oxo-2,3-dihydropyridazine-4-carboxamide], for which the IC50 in assay [1] was 1.56e-06 M; in assay [2] it was more than 2e-05 M.
`C[C@H](CO)NC(=O)c1cc(-c2ccc(C(F)(F)F)cc2)nn(-c2cccc(F)c2)c1=O` [Example 238, 2-(3-Fluorophenyl)-N-[(2R)-1-hydroxypropan-2-yl]-3-oxo-6-[4-(trifluoromethyl)phenyl]-2,3-dihydropryridazine-4-carboxamide]: the IC50 in assay [1] is 9.88e-08 M; in assay [2], more than 2e-05 M.
For `O=C(N[C@@H](CO)Cc1ccccc1)c1cc(-c2ccc(C(F)(F)F)cc2)nn(-c2cccc(F)c2)c1=O` [Example 252, 2-(3-Fluorophenyl)-N-[(2R)-1-hydroxy-3-phenylpropan-2-yl]-3-oxo-6-[4-(trifluoromethyl)phenyl]-2,3-dihydropyridazine-4-carboxamide], in that order: 6.43e-06 M and more than 2e-05 M.
On the same counts, the results for `O=C(N[C@H]1COCC[C@H]1O)c1cc(-c2ccc(Cl)cc2)nn(-c2cccc(F)c2)c1=O` [Example 273, 1,5-Anhydro-2-({[6-(4-chlorophenyl)-2-(3-fluorophenyl)-3-oxo-2,3-dihydropyridazin-4-yl]carbonyl}amino)-2,4-dideoxy-D-erythro-pentitol] are 4.31e-08 M and more than 2e-05 M.
For `O=C(NC(CO)(CO)C(F)(F)F)c1cc(-c2ccc(Cl)cc2)nn(-c2cccc(F)c2)c1=O` [Example 280, 6-(4-Chlorophenyl)-2-(3-fluorophenyl)-3-oxo-N-[1,1,1-trifluoro-3-hydroxy-2-(hydroxymethyl)propan-2-yl]-2,3-dihydropyridazine-4-carboxamide], the IC50 was 1.92e-08 M in assay [1] and more than 2e-05 M in assay [2].
For `O=C(NCC(O)C(F)(F)F)c1cc(-c2ccc(Cl)c(F)c2)nn(-c2cccc(F)c2)c1=O` (stereo not shown) [Example 282, 6-(4-chloro-3-fluorophenyl)-2-(3-fluorophenyl)-3-oxo-N-(3,3,3-trifluoro-2-hydroxypropyl)-2,3-dihydropyridazine-4-carboxamide], the IC50 in assay [1] is 1.81e-07 M; in assay [2], more than 2e-05 M.
On the same counts, the results for `CC(C)[C@@H](CO)NC(=O)c1cc(-c2ccc(Cl)c(F)c2)nn(-c2cccc(F)c2)c1=O` [Example 285, 6-(4-Chloro-3-fluorophenyl)-2-(3-fluorophenyl)-N-[(2S)-1-hydroxy-3-methylbutan-2-yl]-3-oxo-2,3-dihydropyridazine-4-carboxamide] are 9.39e-08 M and more than 2e-05 M.
Regarding `C[C@@H](CO)NC(=O)c1cc(-c2ccc(Cl)c(F)c2)nn(-c2cccc(F)c2)c1=O` [Example 286, 6-(4-Chloro-3-fluorophenyl)-2-(3-fluorophenyl)-N-[(2S)-1-hydroxypropan-2-yl]-3-oxo-2,3-dihydropyridazine-4-carboxamide], the IC50 was 2.77e-07 M in assay [1] and more than 2e-05 M in assay [2].
For `O=C(NC(CO)C1CCOC1)c1cc(-c2ccc(Cl)c(F)c2)nn(-c2cccc(F)c2)c1=O` (stereo not shown) [Example 287, 6-(4-Chloro-3-fluorophenyl)-2-(3-fluorophenyl)-N-[2-hydroxy-1-[-tetrahydrofuran-3-yl]ethyl]-3-oxo-2,3-dihydropyridazine-4-carboxamide], in that order: 1.29e-07 M and more than 2e-05 M.
For `CC(O)C(C)NC(=O)c1cc(-c2ccc(Cl)c(F)c2)nn(-c2cccc(F)c2)c1=O` (stereo not shown) [Example 289, 6-(4-Chloro-3-fluorophenyl)-2-(3-fluorophenyl)-N-(3-hydroxybutan-2-yl)-3-oxo-2,3-dihydropyridazine-4-carboxamide], in that order: 1.44e-07 M and more than 2e-05 M.
On the same counts, the results for `COc1ccc(-c2cc(C(=O)N[C@@H](C)CO)c(=O)n(-c3cccc(F)c3)n2)cc1` [Example 297, 2-(3-Fluorophenyl)-N-[(2S)-1-hydroxypropan-2-yl]-6-(4-methoxyphenyl)-3-oxo-2,3-dihydropyridazine-4-carboxamide] are 8.72e-08 M and more than 2e-05 M.
Regarding `CC[C@@H](CO)NC(=O)c1cc(-c2ccc(OC)cc2)nn(-c2cccc(F)c2)c1=O` [Example 298, 2-(3-Fluorophenyl)-N-[(2S)-1-hydroxybutan-2-yl]-6-(4-methoxyphenyl)-3-oxo-2,3-dihydropyridazine-4-carboxamide], the IC50 in assay [1] was 3.18e-08 M; in assay [2], more than 2e-05 M.
With `O=C(NCC(O)C(F)(F)F)c1cc(-c2ccc(Cl)c(Cl)c2)nn(-c2cccc(F)c2)c1=O` (stereo not shown) [Example 302, 6-(3,4-Dichlorophenyl)-2-(3-fluorophenyl)-3-oxo-N-(3,3,3-trifluoro-2-hydroxypropyl)-2,3-dihydropyridazine-4-carboxamide], the IC50 in assay [1] was 2.29e-07 M; in assay [2], more than 2e-05 M.
Turning to `COCC(O)CNC(=O)c1cc(-c2ccc(Cl)c(Cl)c2)nn(-c2cccc(F)c2)c1=O` (stereo not shown) [Example 303, 6-(3,4-Dichlorophenyl)-2-(3-fluorophenyl)-N-(2-hydroxy-3-methoxypropyl)-3-oxo-2,3-dihydropyridazine-4-carboxamide], the results for the IC50 in assay [1] and in assay [2] were 8.73e-07 M and more than 2e-05 M, respectively.
As for `CC(O)C(C)NC(=O)c1cc(-c2ccc(Cl)c(Cl)c2)nn(-c2cccc(F)c2)c1=O` (stereo not shown) [Example 304, 6-(3,4-Dichlorophenyl)-2-(3-fluorophenyl)-N-(3-hydroxybutan-2-yl)-3-oxo-2,3-dihydropyridazine-4-carboxamide], the half-maximal inhibitory concentration (IC50) in assay [1] was 2.75e-07 M; in assay [2], more than 2e-05 M.
On the same counts, the results for `O=C(NC(CO)C1CCOC1)c1cc(-c2ccc(Cl)c(Cl)c2)nn(-c2cccc(F)c2)c1=O` (stereo not shown) [Example 307, 6-(3,4-Dichlorophenyl)-2-(3-fluorophenyl)-N-[2-hydroxy-1-(tetrahydrofuran-3-yl)ethyl]-3-oxo-2,3-dihydropyridazine-4-carboxamide] are 2.22e-07 M and more than 2e-05 M.
As to `C[C@@H](CO)NC(=O)c1cc(-c2ccc(Cl)cc2)nn(-c2cc(Cl)cc(Cl)c2)c1=O` [Example 309, 6-(4-Chlorophenyl)-2-(3,5-dichlorophenyl)-N-[(2S)-1-hydroxypropan-2-yl]-3-oxo-2,3-dihydropyridazine-4-carboxamide], the results for the IC50 in assay [1] and in assay [2] were 9.87e-07 M and more than 2e-05 M, respectively.
On the same counts, the results for `O=C(NC(CO)C1CCOC1)c1cc(-c2ccc(Cl)cc2)nn(-c2cc(Cl)cc(Cl)c2)c1=O` (stereo not shown) [Example 310, 6-(4-Chlorophenyl)-2-(3,5-dichlorophenyl)-N-[2-hydroxy-1-(tetrahydrofuran-3-yl)ethyl]-3-oxo-2,3-dihydropyridazine-4-carboxamide] are 4.34e-07 M and more than 2e-05 M.
On the same counts, the results for `O=C(NCC(O)C(F)(F)F)c1cc(-c2ccc(Cl)cc2)nn(-c2cc(Cl)cc(Cl)c2)c1=O` (stereo not shown) [Example 311, 6-(4-Chlorophenyl)-2-(3,5-dichlorophenyl)-3-oxo-N-(3,3,3-trifluoro-2-hydroxypropyl)-2,3-dihydropyridazine-4-carboxamide] are 6.6e-07 M and more than 2e-05 M.
For `O=C(NCCC1(O)CCCCC1)c1cc(-c2ccc(Cl)cc2)nn(-c2cccc(F)c2)c1=O` [Example 320, 6-(4-chlorophenyl)-2-(3-fluorophenyl)-N-[2-(1-hydroxycyclohexyl)ethyl]-3-oxo-2,3-dihydropyridazine-4-carboxamide], in that order: 3.62e-07 M and more than 2e-05 M.
In the case of `CC(C)(O)CCNC(=O)c1cc(-c2ccc(Cl)cc2)nn(-c2cccc(F)c2)c1=O` [Example 321, 6-(4-chlorophenyl)-2-(3-fluorophenyl)-N-(3-hydroxy-3-methylbutyl)-3-oxo-2,3-dihydropyridazine-4-carboxamide], the IC50 was 2.64e-07 M in assay [1] and more than 2e-05 M in assay [2].
Turning to `O=C(NCC1(O)CCOCC1)c1cc(-c2ccc(Cl)cc2)nn(-c2cccc(F)c2)c1=O` [Example 325, 6-(4-chlorophenyl)-2-(3-fluorophenyl)-N-[(4-hydroxytetrahydro-2H-pyran-4-yl)methyl]-3-oxo-2,3-dihydropyridazine-4-carboxamide], the IC50 was 9.65e-08 M in assay [1] and more than 2e-05 M in assay [2].
